Reference: US6908934B2, “Therapeutic compounds for treating dyslipidemic conditions” (Merck & Co., Inc., priority 2001, dated 2005)

Tested on: ABCA1 mRNA
Experiment: cells
Format: cell-based
Details: Primary macrophage, human primary macrophages, 18 h + 6 h treatment, vs DMSO control, read-out: Fold Induction of ABCA1 mRNA (Mean ± SEM)
Protocol: Induction of ABCA1 mRNA Levels
Human Primary Macrophages were used to test the ability of LXR ligands to induce the expression of ABCA1 mRNA. The collection and purification of monocytes and their subsequent differentiation into macrophages by culturing in Teflon jars for 7-9 days was performed according to Wright and Silverstein J. Exp. Med. V156, October 1982 pp 1149-1164. Cells were harvested from the Teflon jars and seeded into appropriate vessels in RPMI1640 plus 12% human serum and antibiotics. Cells were allowed to recover overnight before treatment. Treatment was for 18 hours with the described compounds, followed by a re-application of fresh compounds for an additional 6 hours in DMEM minus Phenol Red with 10% charcoal stripped FCS. The cells were harvested and total RNA prepared using the phenol/guanidine isothiocyanate method as supplied and described by Molecular Research Center, Inc. (TRI REAGENT® Cat. No. TR 118). ABCA1 mRNA levels in the total RNA were measured using the TaqMan® mRNA quantitation system, following protocols published by the manufacturer (Perkin-Elmer). The oligonucleotide PCR primers used to detect ABCA1 were:
The oligonucleotide probe used was:
6FAM-[…]-TAMRA ABCA1 mRNA levels in each sample were normalized to the mRNA levels for the 23 kDa highly basic protein. The oligonucleotide PCR primers used to detect the 23 kDa highly basic protein were: […]

In the case of `CC(C)CC[C@@H](O)[C@@H](C)[C@H]1CC[C@H]2[C@@H]3CC=C4C[C@@H](O)CC[C@]4(C)[C@H]3CC[C@]12C` [22-(R)-hydroxycholesterol], the fold induction at 10 µM is reported as 8 ± 1.37.
